Test system: C57Bl/6J wild-type mice with rmTBI
Experiment: Morris Water Maze assessment for spatial memory in rmTBI mice, intranasal zinc vs vehicle
Assay type: in vivo
Method: Subjects were C57Bl/6J wild-type mice that were 6 weeks of age at the time of the first stressor. All mice received rmTBI delivered using a system 100/200.
For 7 days, stress groups were subject to a rotation of varied stressors, including: • 1. Deprivation of food, water, and enrichment for 8 hours. • 2. Exposure to soiled rat bedding in home cage. • 3. Exposure to bobcat urine in home cage. • 4. Forced swim in ice bath for 5 minutes. • 5. Home cage flooded with water. • 6. Home cage placed on orbital shaker for 5 minutes. • 7. Loud static noise for 1 hour. • 8. Restraint in conical Falcon tube for 1 hour.
A second week of varied stressors was administered concurrently with rmTBI. The rmTBI closed-head injury was induced by Leica One Controlled Cortical Impact device with falling platform as in system 100, causing the mouse to rotate upon impact. Anesthetized mice received one mTBI every 48 hours over the course of 7 days for a total of 4 injuries. Immediately following injury, mice were intranasally administered either zinc treatment or vehicle control (water).
Changes in behavior were also analyzed, using the Morris Water Maze assessment for spatial memory over 7 days. In this measure of learning and memory, the mouse is tested for the ability to locate a platform in a pool of water using visual cues. Days 1-6 had 3 trials, and days 2, 4 and 6 used a hidden platform for trial 3. Day 7 comprised a 24-hr probe trial.

Substance: zinc
- time spent in the quadrant of the maze where the platform was present (Morris water maze) (day 6, non-stressed mice only, trending stress x zinc interaction F(1,39)=4.002, p=0.052, zinc intranasally after injury vs vehicle, FIG. 11): beneficial effect
- number of platform crossings (Morris water maze) (effect only for stressed mice, stress x zinc interaction F(1,39)=4.207, p=0.047, zinc intranasally after injury vs vehicle, FIG. 10): significantly increased
- latency in locating the maze platform (Morris water maze) (stressed and non-stressed, zinc intranasally immediately after each injury vs vehicle control (water), F(1,39)=2.184, p=0.147, FIG. 9): did not differ

Source: patent publication US11963848B2, “Impactor platform allowing freefall upon impact” (George Mason University, priority 2019, dated 2024)
